In US20250206732A1, “COMPOUNDS AND METHODS FOR THE TARGETED DEGRADATION OF KRAS” (Arvinas Operations, Inc., priority 2022, published 2025):

Biological target: T1, AsPC-1 HiBiT-KRASG12D (Homo sapiens, UniProt P01116, G12D)
T1 construct: insert the HiBiT tag onto the N-terminus of one or more of the endogenous KRAS alleles; endogenous in cells; host or cells: AsPC-1 (ATCC CRL-1682), CRISPR-Cas9 knock-in clone, one tagged allele
Experiment: HiBiT degradation assay (G12D), AsPC-1 HiBiT-KRASG12D cells
Assay type: cell-based
Details: 24 hours treatment; for Dmax: ASPC1, AsPC-1 HiBiT-KRASG12D cells, maximum degradation observed; for DC50: AsPC-1 HiBiT-KRASG12D cells, HiBiT luminescence
In short: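 24 h cmpd treatment, 37° C/5% CO2, AsPC-1 HiBiT-KRASG12D clone (CRISPR N-term tag). Alamar blue 1×, 4 h, fluorescence. PBS wash, Nano-Glo HiBiT lytic reagent, 45 min RT, luminescence. Triplicates.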

T1 sequence (P01116 1-188 isoform P01116-2 G12D): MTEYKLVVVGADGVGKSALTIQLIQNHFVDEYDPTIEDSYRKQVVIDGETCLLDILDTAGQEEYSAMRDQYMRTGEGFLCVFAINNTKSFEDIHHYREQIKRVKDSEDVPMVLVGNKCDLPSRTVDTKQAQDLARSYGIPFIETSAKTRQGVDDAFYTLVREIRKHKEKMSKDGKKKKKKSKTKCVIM

Row | SMILES | Dmax | DC50
1 | CCc1cccc2cc(O)cc(-c3ncc4c(N5CC6CCC(C5)N6)nc(OC[C@@]56CCCN5[C@H](COC(=O)N5CCN(c7cc([C@H](C(=O)N8C[C@H](O)C[C@H]8C(=O)N[C@@H](C)c8ccc(-c9scnc9C)cc8)C(C)C)on7)C[C@@H]5C)CC6)nc4c3F)c12 [Compound 325, [(3S,8S)-8-[[4-(3,8-diazabicyclo[3.2.1]octan-3-yl)-7-(8-ethyl-3-hydroxy-1-naphthyl)-8-fluoro-pyrido[4,3-d]pyrimidin-2-yl]oxymethyl]-1,2,3,5,6,7-hexahydropyrrolizin-3-yl]methyl (2S)-4-[5-[(1R)-1-[(2S,4R)-4-hydroxy-2-[[(1S)-1-[4-(4-methylthiazol-5-yl)phenyl]ethyl]carbamoyl]pyrrolidine-1-carbonyl]-isobutyl]isoxazol-3-yl]-2-methyl-piperazine-1-carboxylate] | 80 to 100% | < 600 nM
2 | CCc1cccc2cc(O)cc(-c3ncc4c(N5CC6CCC(C5)N6)nc(OC[C@@]56CCCN5[C@H](COC(=O)N5CCN(c7cc([C@@H](C(=O)N8C[C@H](O)C[C@H]8C(=O)N[C@@H](C)c8ccc(-c9scnc9C)cc8)C(C)C)on7)C[C@@H]5C)CC6)nc4c3F)c12 [Compound 326, [(3S,8S)-8-[[4-(3,8-diazabicyclo[3.2.1]octan-3-yl)-7-(8-ethyl-3-hydroxy-1-naphthyl)-8-fluoro-pyrido[4,3-d]pyrimidin-2-yl]oxymethyl]-1,2,3,5,6,7-hexahydropyrrolizin-3-yl]methyl (2S)-4-[5-[(1S)-1-[(2S,4R)-4-hydroxy-2-[[(1S)-1-[4-(4-methylthiazol-5-yl)phenyl]ethyl]carbamoyl]pyrrolidine-1-carbonyl]-isobutyl]isoxazol-3-yl]-2-methyl-piperazine-1-carboxylate] | < 20% | < 600 nM
3 | CCc1cccc2cc(O)cc(-c3ncc4c(N5CC6CCC(C5)N6)nc(OC[C@@]56CCCN5[C@H](COC(=O)N5CCN(c7cc([C@H](C(=O)N8C[C@H](O)C[C@H]8C(=O)N[C@@H](C)c8ccc(-c9scnc9C)cc8)C(C)C)on7)[C@H](C)C5)CC6)nc4c3F)c12 [Compound 327, [(3S,8S)-8-[[4-(3,8-diazabicyclo[3.2.1]octan-3-yl)-7-(8-ethyl-3-hydroxy-1-naphthyl)-8-fluoro-pyrido[4,3-d]pyrimidin-2-yl]oxymethyl]-1,2,3,5,6,7-hexahydropyrrolizin-3-yl]methyl (3R)-4-[5-[(1R)-1-[(2S,4R)-4-hydroxy-2-[[(1S)-1-[4-(4-methylthiazol-5-yl)phenyl]ethyl]carbamoyl]pyrrolidine-1-carbonyl]-isobutyl]isoxazol-3-yl]-3-methyl-piperazine-1-carboxylate] | 80 to 100% | < 600 nM
4 | CCc1cccc2cc(O)cc(-c3ncc4c(N5CC6CCC(C5)N6)nc(OCCN5CCC(COCC(=O)N[C@H](C(=O)N6C[C@H](O)C[C@H]6C(=O)N[C@@H](C)c6ccc(-c7scnc7C)c(Cl)c6)C(C)(C)C)CC5)nc4c3F)c12 [Compound 332, (2S,4R)—N-[(1S)-1-[3-chloro-4-(4-methyl-1,3-thiazol-5-yl)phenyl]ethyl]-1-[(2S)-2-{2-[(1-{2-[(4-{3,8-diazabicyclo[3.2.1]octan-3-yl}-7-(8-ethyl-3-hydroxynaphthalen-1-yl)-8-fluoropyrido[4,3-d]pyrimidin-2-yl)oxy]ethyl}piperidin-4-yl)methoxy]acetamido}-3,3-dimethylbutanoyl]-4-hydroxypyrrolidine-2-carboxamide] | 80 to 100% | 600 to 1000 nM
5 | CCc1cccc2cc(O)cc(-c3ncc4c(N5CC6CCC(C5)N6)nc(OC[C@@]56CCCN5[C@H](CN5CCC(F)(COc7cc([C@H](C(=O)N8C[C@H](O)C[C@H]8C(=O)N[C@@H](C)c8ccc(-c9scnc9C)cc8)C(C)C)on7)CC5)CC6)nc4c3F)c12 [Compound 335, (2S,4R)-1-[(2R)-2-[3-[[1-[[(3S,8S)-8-[[4-(3,8-diazabicyclo[3.2.1]octan-3-yl)-7-(8-ethyl-3-hydroxy-1-naphthyl)-8-fluoro-pyrido[4,3-d]pyrimidin-2-yl]oxymethyl]-1,2,3,5,6,7-hexahydropyrrolizin-3-yl]methyl]-4-fluoro-4-piperidyl]methoxy]isoxazol-5-yl]-3-methyl-butanoyl]-4-hydroxy-N-[(1S)-1-[4-(4-methylthiazol-5-yl)phenyl]ethyl]pyrrolidine-2-carboxamide] | 80 to 100% | < 600 nM
6 | CCc1cccc2cc(O)cc(-c3ncc4c(N5CC6CCC(C5)N6)nc(OC[C@@]56CCCN5[C@H](CN5CCC(F)(COc7cc([C@@H](C(=O)N8C[C@H](O)C[C@H]8C(=O)N[C@@H](C)c8ccc(-c9scnc9C)cc8)C(C)C)on7)CC5)CC6)nc4c3F)c12 [Compound 336, (2S,4R)-1-[(2S)-2-[3-[[1-[[(3S,8S)-8-[[4-(3,8-diazabicyclo[3.2.1]octan-3-yl)-7-(8-ethyl-3-hydroxy-1-naphthyl)-8-fluoro-pyrido[4,3-d]pyrimidin-2-yl]oxymethyl]-1,2,3,5,6,7-hexahydropyrrolizin-3-yl]methyl]-4-fluoro-4-piperidyl]methoxy]isoxazol-5-yl]-3-methyl-butanoyl]-4-hydroxy-N-[(1S)-1-[4-(4-methylthiazol-5-yl)phenyl]ethyl]pyrrolidine-2-carboxamide] | 20 to 60% | 1000 to 3000 nM
7 | CCc1cccc2cc(O)cc(-c3ncc4c(N5CC6CCC(C5)N6)nc(OCCN5CCC(F)(COc6cc([C@H](C(=O)N7C[C@H](O)C[C@H]7C(=O)N[C@@H](C)c7ccc(-c8scnc8C)cc7)C(C)C)on6)CC5)nc4c3F)c12 [Compound 337, (2S,4R)-1-[(2R)-2-{3-[(1-{2-[(4-{3,8-diazabicyclo[3.2.1]octan-3-yl}-7-(8-ethyl-3-hydroxynaphthalen-1-yl)-8-fluoropyrido[4,3-d]pyrimidin-2-yl)oxy]ethyl}-4-fluoropiperidin-4-yl)methoxy]-1,2-oxazol-5-yl}-3-methylbutanoyl]-4-hydroxy-N-[(1S)-1-[4-(4-methyl-1,3-thiazol-5-yl)phenyl]ethyl]pyrrolidine-2-carboxamide] | 80 to 100% | < 600 nM
8 | CCc1cccc2cc(O)cc(-c3ncc4c(N5CC6CCC(C5)N6)nc(OC[C@]56CCCN5[C@H](COC(=O)N5CC7(C5)CN(c5cc([C@H](C(=O)N8C[C@H](O)C[C@H]8C(=O)N[C@@H](C)c8ccc(-c9scnc9C)cc8)C(C)C)on5)C7)CC6)nc4c3F)c12 [Compound 340, [(3S,8R)-8-[[4-(3,8-diazabicyclo[3.2.1]octan-3-yl)-7-(8-ethyl-3-hydroxy-1-naphthyl)-8-fluoro-pyrido[4,3-d]pyrimidin-2-yl]oxymethyl]-1,2,3,5,6,7-hexahydropyrrolizin-3-yl]methyl 6-[5-[(1S)-1-[(2S,4R)-4-hydroxy-2-[[(1S)-1-[4-(4-methylthiazol-5-yl)phenyl]ethyl]carbamoyl]pyrrolidine-1-carbonyl]-isobutyl]isoxazol-3-yl]-2,6-diazaspiro[3.3]heptane-2-carboxylate] | 80 to 100% | < 600 nM
9 | CCc1cccc2cc(O)cc(-c3ncc4c(N5CC6CCC(C5)N6)nc(OC[C@@]56CCCN5[C@H](COC(=O)N5CCN(c7cc([C@@H](C(=O)N8C[C@H](O)C[C@H]8C(=O)N[C@@H](C)c8ccc(-c9scnc9C)cc8)C(C)C)on7)[C@H](C)C5)CC6)nc4c3F)c12 [Compound 341, [(3S,8S)-8-[[4-(3,8-diazabicyclo[3.2.1]octan-3-yl)-7-(8-ethyl-3-hydroxy-1-naphthyl)-8-fluoro-pyrido[4,3-d]pyrimidin-2-yl]oxymethyl]-1,2,3,5,6,7-hexahydropyrrolizin-3-yl]methyl (3R)-4-[5-[(1S)-1-[(2S,4R)-4-hydroxy-2-[[(1S)-1-[4-(4-methylthiazol-5-yl)phenyl]ethyl]carbamoyl]pyrrolidine-1-carbonyl]-isobutyl]isoxazol-3-yl]-3-methyl-piperazine-1-carboxylate] |  | > 3000 nM
10 | CCc1cccc2cc(O)cc(-c3ncc4c(N5CC6CCC(C5)N6)nc(OC[C@@H]5CC[C@]6(COC(=O)N7CCN(c8cc([C@H](C(=O)N9C[C@H](O)C[C@H]9C(=O)N[C@@H](C)c9ccc(-c%10scnc%10C)cc9)C(C)C)on8)CC7)CCCN56)nc4c3F)c12 [Compound 342, [(3S,8S)-3-[[4-(3,8-diazabicyclo[3.2.1]octan-3-yl)-7-(8-ethyl-3-hydroxy-1-naphthyl)-8-fluoro-pyrido[4,3-d]pyrimidin-2-yl]oxymethyl]-1,2,3,5,6,7-hexahydropyrrolizin-8-yl]methyl 4-[5-[(1R)-1-[(2S,4R)-4-hydroxy-2-[[(1S)-1-[4-(4-methylthiazol-5-yl)phenyl]ethyl]carbamoyl]pyrrolidine-1-carbonyl]-isobutyl]isoxazol-3-yl]piperazine-1-carboxylate] | 80 to 100% | < 600 nM
11 | CCc1cccc2cc(O)cc(-c3ncc4c(N5CC6CCC(C5)N6)nc(OC[C@H]5CC[C@@]6(COC(=O)N7CCN(c8cc([C@H](C(=O)N9C[C@H](O)C[C@H]9C(=O)N[C@@H](C)c9ccc(-c%10scnc%10C)cc9)C(C)C)on8)CC7)CCCN56)nc4c3F)c12 [Compound 343, [(3R,8R)-3-[[4-(3,8-diazabicyclo[3.2.1]octan-3-yl)-7-(8-ethyl-3-hydroxy-1-naphthyl)-8-fluoro-pyrido[4,3-d]pyrimidin-2-yl]oxymethyl]-1,2,3,5,6,7-hexahydropyrrolizin-8-yl]methyl 4-[5-[(1R)-1-[(2S,4R)-4-hydroxy-2-[[(1S)-1-[4-(4-methylthiazol-5-yl)phenyl]ethyl]carbamoyl]pyrrolidine-1-carbonyl]-2-methyl-propyl]isoxazol-3-yl]piperazine-1-carboxylate] | 80 to 100% | < 600 nM
